Data on 33 compounds can be found in ChEMBL document CHEMBL4673175, “An epigrammatic status of the azole-based antimalarial drugs” (RSC Med Chem, 2020).

Data set [1] deals with Plasmodium falciparum. The data set can be described thus: Antimalarial activity against chloroquine sensitive Plasmodium falciparum incubated for 24 to 48 hrs by Giemsa staining based assay. The format is functional, organism-based.
Data set [2] relates to Plasmodium falciparum. The data set can be described thus: Antimalarial activity against chloroquine resistant Plasmodium falciparum incubated for 24 to 48 hrs by Giemsa staining based assay. The format is functional, organism-based.
The subject of data set [3] is Plasmodium falciparum. The data set can be described thus: Antimalarial activity against chloroquine sensitive Plasmodium falciparum 3D7 incubated for 72 hrs by JSB1/JSB2 staining based assay. The format is functional, organism-based. The following applies: 3D7, 72 h.
Data set [4] relates to Plasmodium falciparum. The data set can be described thus: Antimalarial activity against Plasmodium falciparum assessed as reduction in [3H]-hypoxanthine incorporation into DNA incubated for 36 hrs by beta counter method. The format is functional, organism-based.
Data set [5] is described as follows: Selectivity index, ratio of EC50 for cytotoxicity against […] cells to EC50 for antiplasmodial activity against Plasmodium falciparum FCR-3 ATCC 30932 infected in human erythrocytes. The format is toxicity, cell-based. The note with it: mouse, read-out: Ratio EC50.
The subject of data set [6] is Plasmodium falciparum. The data set can be described thus: Antiplasmodial activity against chloroquine sensitive Plasmodium falciparum FCR-3 infected in human erythrocytes incubated for 72 hrs by giemsa staining based assay. The format is functional, organism-based. The following applies: FCR-3, 72 h.
The subject of data set [7] is Plasmodium falciparum. Kind of data set: Antimalarial activity against chloroquine resistant Plasmodium falciparum RKL9 assessed as reduction in schizont maturation incubated for 24 hrs by Giemsa staining based assay. The format is functional, organism-based. The following applies: RKL9, 24 h.
Data set [8] has as its system Plasmodium falciparum. The data set can be described thus: Antiplasmodial activity against chloroquine sensitive Plasmodium falciparum D10. The format is functional, organism-based.

As usually defined, the IC50 is the concentration that gives 50% inhibition. For `CC(C)(C)n1c(CC(N)C(=O)O)cnc1Cc1ccccc1` (stereo not given), the half-maximal inhibitory concentration (IC50) in the data set with Plasmodium falciparum [1] and in the data set on Plasmodium falciparum [2] was 10 µM each time. `NC(=S)N1N=C(c2ccc(N)cc2)CC1c1cn(-c2ccc(Cl)cc2)nc1-c1ccccc1` (stereo not given): the IC50 with Plasmodium falciparum [3] is < 5 µM. Still for that read-out and setting: to `COc1ccc(C2=NN(C(N)=S)C(c3cn(-c4ccc(OC)cc4)nc3-c3ccccc3)C2)cc1` (stereo not given) belongs < 5 µM.

Regarding `COc1ccc(Nc2n[nH]c(N)c2C#N)cc1`, the IC50 in the data set on Plasmodium falciparum [4] was 0.14 µM.

As for `CC(C)(C)c1nc(CC(N)C(=O)O)c[nH]1` (stereo not given), the IC50 in the data set on Plasmodium falciparum [1] and in the data set on Plasmodium falciparum [2] was 10 µM in each case. As for `COC(=O)c1c(Nc2ccccc2)n[nH]c1N`, in the data set on Plasmodium falciparum [4], the IC50 was found to be 0.14 µM. On to `CC(C)n1cncc1CCN`, for which the IC50 in the data set with Plasmodium falciparum [1] and with Plasmodium falciparum [2] was 10 µM each time. Regarding `N#Cc1c(Nc2ccccc2)n[nH]c1N`, in the data set with Plasmodium falciparum [4], the IC50 was 0.14 µM. Same read-out and setting: to `COc1ccccc1Nc1n[nH]c(N)c1C#N` belongs 0.14 µM. As to `NCCc1cncn1Cc1ccccc1`, the IC50 with Plasmodium falciparum [1] and in the data set with Plasmodium falciparum [2] was 10 µM throughout.

The EC50 is the concentration at which the effect is half-maximal. A low value points to an effect from little substance. As to `CN1/C(=c2\s/c(=C\c3cc[n+](C)cc3)n(Cc3ccccc3)c2=O)Sc2ccccc21`, the selectivity ratio in data set [5] is > 100. In the data set on Plasmodium falciparum [6], this compound registered an EC50 of 0.004 µM. In the case of `COc1cccc(Nc2n[nH]c(N)c2C#N)c1`, the IC50 with Plasmodium falciparum [4] is 0.14 µM. As to `Cc1ccc(-n2cc(/C=N/Nc3ccncc3)c(-c3ccccc3)n2)cc1`, the IC50 with Plasmodium falciparum [7] came to 0.033 µM.

`O=[N+]([O-])c1ccc(N/N=C/c2cn(-c3ccc(Cl)cc3)nc2-c2ccccc2)c([N+](=O)[O-])c1`: the 50% inhibitory concentration (IC50) in the data set on Plasmodium falciparum [7] stood at 0.033 µM. In the case of `COc1ccc(-n2cc(C3CC(c4ccc(N)cc4)=NN3C(N)=S)c(-c3ccccc3)n2)cc1` (stereo not given), the IC50 in the data set on Plasmodium falciparum [3] was < 5 µM. Turning to `CC(C)c1nc(CC(N)C(=O)O)c[nH]1` (stereo not given), the IC50 in the data set with Plasmodium falciparum [1] and in the data set with Plasmodium falciparum [2] was 10 µM each time. As for `CC(C)n1cncc1CC(N)C(=O)O` (stereo not given), the half-maximal inhibitory concentration (IC50) in the data set on Plasmodium falciparum [1] and with Plasmodium falciparum [2] was 10 µM throughout. Turning to `CC(C)n1c(CC(N)C(=O)O)cnc1Cc1ccccc1` (stereo not given), the concentration for half-maximal inhibition (IC50) in the data set on Plasmodium falciparum [1] and in the data set on Plasmodium falciparum [2] was 10 µM throughout. On to `CC(C)(C)c1nc(CCN)c[nH]1`, for which the IC50 with Plasmodium falciparum [1] and with Plasmodium falciparum [2] was 10 µM each time. For `CCn1c(=O)/c(=C2\Sc3ccccc3N2C)s/c1=C\c1cccc[n+]1CCCCC(=O)O`, the selectivity ratio in data set [5] was > 100. This compound yielded an EC50 in the data set with Plasmodium falciparum [6] of 0.004 µM.

Consider `COC(=O)c1c(Nc2cccc(OC)c2)n[nH]c1N`, for which, in the data set on Plasmodium falciparum [4], the half-inhibitory concentration (IC50) stood at 0.14 µM. For `NC(=S)N1N=C(c2ccc(N)cc2)CC1c1cn(-c2ccccc2)nc1-c1ccccc1` (stereo not given), the IC50 in the data set with Plasmodium falciparum [3] is < 5 µM.

Take `Cc1ccc(-n2cc(C3CC(c4ccc(N)cc4)=NN3C(N)=S)c(-c3ccccc3)n2)cc1` (stereo not given): the IC50 with Plasmodium falciparum [3] was < 5 µM. With `C=CCn1c(=O)/c(=C2\Sc3ccccc3N2C)s/c1=C\c1cccc[n+]1C`, in data set [5], the selectivity ratio was > 100. Besides, in the data set with Plasmodium falciparum [6], the response was half-maximal at 0.004 µM (EC50).

In the case of `CCn1c(=O)/c(=C2\Sc3ccccc3N2C)s/c1=C\c1cc[n+](C)cc1`, the selectivity ratio in data set [5] is > 100. This compound also showed an EC50 in the data set on Plasmodium falciparum [6] of 0.004 µM. For `CCn1c(=O)/c(=C2\Sc3ccccc3N2C)s/c1=C/c1cc[n+](C)c(-c2ccccc2)c1`, in that order: > 100 and 0.004 µM. Regarding `CCNCC(Cn1cc(-c2ccccc2)nn1)NCc1ccc(Cl)cc1` (stereo not given), the half-maximal inhibitory concentration (IC50) with Plasmodium falciparum [8] is ≤ 25 µM.

`CCn1c(=O)/c(=C2\Sc3ccccc3N2C)s/c1=C/c1cc[n+](CCO)cc1`: in data set [5], the selectivity ratio is > 100. In the data set with Plasmodium falciparum [6], this compound registered an EC50 of 0.004 µM.

For `CCn1c(=O)/c(=C2\Sc3ccccc3N2C)s/c1=C\c1cccc[n+]1CCO`, the selectivity ratio in data set [5] was > 100. This compound also registered an EC50 in the data set on Plasmodium falciparum [6] of 0.004 µM. Turning to `CCNCC(Cn1cc(-c2ccccc2)nn1)NCc1ccccc1` (stereo not given), in the data set with Plasmodium falciparum [8], the concentration for half-maximal inhibition (IC50) is ≤ 25 µM.

Take `COc1ccc(CN2CC2Cn2cc(-c3ccccc3)nn2)cc1` (stereo not given): in the data set on Plasmodium falciparum [8], the 50% inhibitory concentration (IC50) was ≤ 25 µM. Consider `CCn1c(=O)/c(=C2\Sc3ccccc3N2C)s/c1=C/c1cc[n+](CCCCC(=O)O)cc1`, for which the selectivity ratio in data set [5] is > 100. Besides, in the data set with Plasmodium falciparum [6], it took 0.004 µM to reach a half-maximal effect (EC50).

On to `CC(C)c1nc(CCN)c[nH]1`, for which the 50% inhibitory concentration (IC50) in the data set with Plasmodium falciparum [1] and in the data set with Plasmodium falciparum [2] was 10 µM in each case.
